Key:
[1] = test system: Zymoseptoria tritici strain Zt Tri-R6; test: Preventive treatment of wheat plants, inoculated leaf fragments (detached leaf test), necrosis length / AUDPC; type: in vivo
Protocol: A study was conducted to evaluate efficacy of multi-site fungicide (Captan) on zymoSeptoria tritici pathogen. Winter wheat plants cv. Alixan (Limagrain) at the BBCH 12 growth stage were treated with a hand sprayer at 2 bars calibrated to deliver the equivalent of 200 L/ha. Three replicates (pots) of 6 wheat plants each are used for all conditions tested. After treatment, wheat plants are left to dry at room temperature for 1 hour and then placed in a climatic chamber.
Twenty-four hours after treatments, 5-cm fragments of the first leaf are cut and transferred on 90-mm diameter Petri dish containing water agar supplemented with an anti-senescing compound (7 leaf fragments per Petri dish). Leaf fragments are then inoculated with a paint brush dipped into the calibrated pycnospores suspension of Z. tritici strain Mg Tri-R6.
After inoculation, Petri dishes are placed in adapted climatic conditions.
Disease assessments are carried out 21 and 28 days post inoculation (dpi) by measuring the length of the necrosis and the total length of the leaf fragment. The intensity of infection is then determined in percent of the total length of the leaf fragment. The values of the intensity of infection obtained are compared by means of the Newman and Keuls test (XL-Stat software, Addinsoft Ltd.).
The most commonly used method for estimating the Area Under the Disease Progress Curve (AUDPC), the trapezoidal method, is performed. The fungicide efficacy was determined from the intensity of infection and the AUDPC values and expressed in percent of the untreated control.

[2] = test system: Speckled leaf blotch of wheat (Spetoria Titrici); test: Field trials (Trial 1 and Trial 2) in winter wheat, control of speckled leaf blotch; type: in vivo, Zymoseptoria tritici
Protocol: Two trials were conducted in Winter wheat/Triticum aestivum (winter), variety ADVISOR, to evaluate the control of Speckled leaf blotch of wheat (Spetoria Titrici) as primary target. All products were applied with a knapsack sprayer using compressed air as the propellant. The sprayer was equipped with a boom and flat fan nozzles, and calibrated to apply a homogeneous spray volume at a constant pressure.
Application method: Application A: At the beginning of disease attack and Application B: Renew the application when new disease attack occurs in the best plots, 3 weeks after application A (at least 2 weeks, at the most 4 weeks).

[3] = Dose 1600 g a.i./ha, strain Zt Tri-R6, wheat leaf fragments treated preventively

For `N#Cc1c(Cl)c(Cl)c(Cl)c(C#N)c1Cl` [Chlorothalonil], the “Fungicide efficacy against Zymoseptoria tritici (% Control)” value (from here on “Fungicide efficacy … (% Control)”) ([1]; Dose 750 g a.i./ha, strain Zt Tri-R6, wheat leaf fragments treated preventively) was 69.2 % Control.

`S1SSSSSSS1` [sulphur] was tested, and the “Fungicide efficacy … (% Control)” value ([1]; Dose 4200 g a.i./ha, strain Zt Tri-R6, wheat leaf fragments treated preventively) was 65.8 % Control.

In the case of Mancozeb, the “Fungicide efficacy … (% Control)” value [1, 3] was 21.0 % Control.

For `OC(Cc1ccccc1Cl)(Cn1nc[nH]c1=S)C1(Cl)CC1` (stereo not drawn) [Prothioconazole], the “Fungicide efficacy against Zymoseptoria tritici (%)” value ([1]; Table 3, from AUDPC values, dose 30 g a.i./ha, strain Zt Tri-R6) was 68.2%, the “Fungicide efficacy against Zymoseptoria tritici (%)” value ([1]; Table 4, from AUDPC values, dose 22.5 g a.i./ha, strain Zt Tri-R6) was 62.9% and the “Fungicide efficacy … (% Control)” value ([2]; Trial 1, winter wheat field, rate 0.31 L/ha, 28 DA-B (first 28 DA-B column)) was 31.2 % Control. The “Fungicide efficacy … (% Control)” value ([2]; Trial 1, winter wheat field, rate 0.31 L/ha, 28 DA-B (second 28 DA-B column)) was 28.8 % Control, the “Fungicide efficacy … (% Control)” value ([2]; Trial 2, winter wheat field, rate 0.31 L/ha, 26 DA-A) was 42.3 % Control and the “Fungicide efficacy … (% Control)” value ([2]; Trial 2, winter wheat field, rate 0.31 L/ha, 40 DA-A (first 40 DA-A column)) was 40.7 % Control. The “Fungicide efficacy … (% Control)” value ([2]; Trial 2, winter wheat field, rate 0.31 L/ha, 40 DA-A (second 40 DA-A column)) was 58.4 % Control.

For `O=C1C2CC=CCC2C(=O)N1SC(Cl)(Cl)Cl` (stereo not drawn) [Captan], the efficiency ([1]; 800 g/ha, strain Zt Tri-R6) was 77%, the “inhibition of the development of the Z. tritici strain into wheat leaf tissues” value ([1]; 1600, 2400 and 3200 g/ha) was “almost completely inhibits” and the “Fungicide efficacy … (% Control)” value ([1]; Dose 800 g a.i./ha, strain Zt Tri-R6, wheat leaf fragments treated preventively) was 77.9 % Control. The “Fungicide efficacy … (% Control)” value [1, 3] was 96.0 % Control, the “Fungicide efficacy … (% Control)” value ([1]; Dose 2400 g a.i./ha, strain Zt Tri-R6, wheat leaf fragments treated preventively) was 97.0 % Control and the “Fungicide efficacy … (% Control)” value ([1]; Dose 3200 g a.i./ha, strain Zt Tri-R6, wheat leaf fragments treated preventively) was 100 % Control. The “effectiveness for controlling Septoria tritici” value ([1]; conclusion from Tables 1 to 5) was “effective for controlling Septoria tritici”, the “fungicidal efficacy against Zymoseptoria tritici strain Zt Tri-R6” value ([1]; lowest rate of 800 g/ha) was “very good fungicidal efficacy” and the “Fungicide efficacy … (% Control)” value ([2]; Trial 1, winter wheat field, rate 1.8 L/ha, 28 DA-B (first 28 DA-B column)) was 32.4 % Control. The “Fungicide efficacy … (% Control)” value ([2]; Trial 1, winter wheat field, rate 1.8 L/ha, 28 DA-B (second 28 DA-B column)) was 24.5 % Control, the “Fungicide efficacy … (% Control)” value ([2]; Trial 2, winter wheat field, rate 1.8 L/ha, 26 DA-A) was 41.3 % Control and the “Fungicide efficacy … (% Control)” value ([2]; Trial 2, winter wheat field, rate 1.8 L/ha, 40 DA-A (first 40 DA-A column)) was 31.9 % Control. For the same compound, the “Fungicide efficacy … (% Control)” value ([2]; Trial 2, winter wheat field, rate 1.8 L/ha, 40 DA-A (second 40 DA-A column)) was 25.7 % Control.

In the case of `CC1COC(Cn2cncn2)(c2ccc(Oc3ccc(Cl)cc3)cc2Cl)O1` (stereo not drawn) [Difenoconazole], the “Fungicide efficacy … (% Control)” value ([1]; Table 2, from AUDPC values, dose 25 g a.i./ha, strain Zt Tri-R6) was 81.8 % Control.
